Laboratory results published in patent publication US6365178B1, “Method of making pressure sensitive adhesive matrix patches for transdermal drug delivery using hydrophilic salts of drugs and hydrophobic pressure sensitive adhesive dispersions” (priority 1996, dated 2002).
Where a name gives a salt, the structure may show the parent alone. One block for each compound: values may come before it.

Tests used:
[1] = Visual/microscopic observation of matrix films for drug crystals after preparation and on storage (physical stability); assay type: physicochemical; conditions: for Observations: drug crystals: 59 weeks of storage at 40° C./75% RH, microscopic
Description: As used herein, “physical stability” of a drug in a matrix patch includes the lack of recrystallization of the drug in the dried adhesive layer of the patch.
Pressure sensitive adhesive matrix systems described herein were prepared as follows. First, the solids content of a water-based or solvent-based adhesive in liquid form was determined by placing a known weight of liquid in a weighed aluminum dish and evaporating the solvents overnight in a 70° C. convection oven. The content of solid adhesive in the liquid was calculated by dividing the adhesive solid weight after drying by the initial total liquid weight. In some cases, the polyisobutylene (PIB) adhesives were prepared from polyisobutylene solids. The solid PIB was first dissolved in heptane to achieve a final solid content of about 30% by weight, and then the exact solid content was determined as described above. Next, a weighed quantity of adhesive liquid was added to a glass bottle, and the solid adhesive weight was calculated from the known solid fraction of the given adhesive liquid. The drug substance (hydrophilic salt or free drug form) was weighed and added to the adhesive solution in a quantity necessary to achieve a selected dry matrix film composition. The liquid containing the adhesive polymer drug substance was then mixed overnight. […] After mixing, approximately 8 ml of the solution was dispensed on a silanized polyester release liner and film cast using a casting knife with a gap size appropriate to achieve a final dried thickness of approximately 0.05-0.1 mm. The cast was dried in a 70° C. convection oven for 15-30 minutes to yield a dried matrix onto which an 0.08 mm thick polyethylene backing film was laminated. These matrix systems were then used to conduct in vitro skin flux experiments as described below. […]
The systems manufactured with the salt and the water-based adhesive dispersions were stored at room temperature and examined using optical microscopy at 100× magnification for the presence of drug crystals.

[2] = Dissolution of drug substance in liquid adhesive or solvent during matrix preparation; assay type: physicochemical
Description: Pressure sensitive adhesive matrix systems described herein were prepared as follows. First, the solids content of a water-based or solvent-based adhesive in liquid form was determined by placing a known weight of liquid in a weighed aluminum dish and evaporating the solvents overnight in a 70° C. convection oven. The content of solid adhesive in the liquid was calculated by dividing the adhesive solid weight after drying by the initial total liquid weight. In some cases, the polyisobutylene (PIB) adhesives were prepared from polyisobutylene solids. […] Next, a weighed quantity of adhesive liquid was added to a glass bottle, and the solid adhesive weight was calculated from the known solid fraction of the given adhesive liquid. The drug substance (hydrophilic salt or free drug form) was weighed and added to the adhesive solution in a quantity necessary to achieve a selected dry matrix film composition. The liquid containing the adhesive polymer drug substance was then mixed overnight. […] The cast was dried in a 70° C. convection oven for 15-30 minutes to yield a dried matrix onto which an 0.08 mm thick polyethylene backing film was laminated. These matrix systems were then used to conduct in vitro skin flux experiments as described below.

[3] = Example 8, Nacor 72-9965 with 5.0% Kollidon 90F, 12%
[4] = Example 7, TSR, equivalent to 1% or 2% (w/w) diclofenac sodium

Compound: CCN(CC)CC(=O)Nc1c(C)cccc1C [lidocaine free base, lidocaine]
Drug crystals in dried matrix ([1]; Example 9, DURO-TAK 2516, equivalent to 1% (w/w) HCl salt): visibly free of drug crystals

Compound: albuterol sulfate
Observations: drug crystals ([1]; 10% (w/w) in NACOR 9965 (water-based acrylic) with 5% KOLLIDON 90F): No crystals were observed

Compound: CC(C)(C)NCC(O)c1ccc(O)c(CO)c1 (stereo not shown) [Albuterol Free Base, albuterol]
Observations: drug crystals ([1]; 10% (w/w) in TSR (organic solvent-based acrylic)): Crystals were observed

Compound: CCN(CC)CC(=O)Nc1c(C)cccc1C [lidocaine HCl]
Drug crystals in dried matrix ([1]; Example 9, DURO-TAK 2516, equivalent to 1% (w/w) HCl salt, HCl): contains visible solid drug crystals
Drug crystals in dried matrix ([1]; Example 9, NACOR 72-9965, 1% (w/w)): physically stable and free of drug crystals

More lines, main results first:

Dissolution in water-based dispersion [2, 3]: dissolved readily
Compound: CC(=O)CC(c1ccccc1)c1c(O)c2ccccc2oc1=O (stereo not shown) [sodium warfarin, warfarin sodium]
Drug crystals in dry matrix [1, 3]: free from visible and microscopic drug crystals

Drug crystals in dried matrix ([1]; Example 10, water-based PIB 500/BUTYL 100 (Lord), 2% (w/w)): visibly free of drug crystals
Compound: Clc1cccc(Cl)c1N=C1NCCN1 [clonidine HCl]

Drug crystals in dried matrix [1, 4]: visually free of drug crystals
Dissolution in organic solvent system [2, 4]: completely dissolved
Compound: O=C(O)Cc1ccccc1Nc1c(Cl)cccc1Cl [diclofenac free acid, diclofenac]
